Our source for the IC50 values is patent US10696639B2, “Heterocyclic compounds as HIV protease inhibitors” (Merck Sharp & Dohme Corp., priority 2016, dated 2020).

One may read the IC50 as the concentration that gives 50% inhibition.

This experiment has as its target T1, wild-type HIV-1 protease (Human immunodeficiency virus type 1 group M subtype B, UniProt P04585).
T1 construct: Escherichia coli expressed wild-type HIV-1 protease protein; made in house; host or cells: Escherichia coli
The experiment in a line: Assay for Inhibition of Microbial Expressed HIV Protease. The conditions noted are these: E. coli expressed wild-type HIV-1 protease, peptide substrate cleavage, LC-MS readout; mean of at least two independent experiments; read-out: HIV Pr Enzyme HIV1 PR IC50. In kind it is biochemical. As for the experimental part:
Assay for Inhibition of Microbial Expressed HIV Protease
Inhibition of Escherichia coli expressed wild-type HIV-1 protease protein was carried out with a peptide substrate [Val-Ser-Gln-Asn-(βnaphtyl)Ala-Pro-Ile-Val]. The inhibitor compound was preincubated with HIV-1 protease enzyme in assay buffer (50 mM sodium acetate, pH 5.5, 100 mM NaCl, and 0.1% BSA) for 30 minutes at room temperature. Peptide substrate was added to […] in a total volume of 20 μL containing 20 pM HIV-1 protease (final) after which the reaction was incubated for 1 hour at 30° C. The reaction was quenched by the addition of formic acid and HIV protease inhibitor indinavir to 0.012% and 150 nM final concentrations, respectively. Product formation was determined after separation of product and substrate on a ZORBAX Eclipse XDB-C18 column (Aligent Technologies, Santa Clara, Calif., USA) connected to an API 4000™ mass spectrometer (AB Sciex, Pte. Ltd., Concord Ontario, Canada) with multiple reaction monitoring (transitions were 644.5/428.9 and 615.4/422.2 (M1/M3) for product and indinavir respectively). The extent of inhibition of the reaction was determined from the peak area of the products. Analysis of the products, independently synthesized, provided quantitation standards and confirmation of the product composition.
As for `CC[C@@H](CCCN1C(=N)N[C@](CC(C)C)(c2ccccc2)C1=O)NC(=O)[C@H](Cc1ccccc1)NC(=O)OC` [Example 47, N-{(1S)-1-ethyl-4-[(4R)-2-imino-4-(2-methylpropyl)-5 oxo-4-phenylimidazolidin-1 yl]butyl}-N-alpha-(methoxycarbonyl)-L-phenylalaninamide], the IC50 is 22 nM.

As for `CC[C@@H](CCCN1C(=N)N[C@](CC(C)C)(c2ccccc2)C1=O)NC(=O)[C@H](Cc1ccc(Cl)cc1)NC(=O)OC` [Example 48, 4-chloro-N-{(1S)-1-ethyl-4-[(4R)-2-imino-4-(2-methylpropyl)-5-oxo-4-phenylimidazolidin-1-yl]butyl}-N-alpha-(methoxycarbonyl)-L-phenylalaninamide], the IC50 was determined as 14 nM.

Regarding `CC[C@@H](CCCN1C(=N)N[C@](CC(C)C)(c2ccccc2)C1=O)NC(=O)[C@H](Cc1cccc(Cl)c1)NC(=O)OC` [Example 49, 3-chloro-N-{(1S)-1-ethyl-4-[(4R)-2-imino-4-(2-methylpropyl)-5-oxo-4-phenylimidazolidin-1-yl]butyl}-N-alpha-(methoxycarbonyl)-L-phenylalaninamide], the IC50 is 15 nM.

With `CC[C@@H](CCCN1C(=N)N[C@](CC(C)C)(c2ccccc2)C1=O)NC(=O)[C@H](Cc1ccccc1Cl)NC(=O)OC` [Example 50, 2-chloro-N-{(1S)-1-ethyl-4-[(4R)-2-imino-4-(2-methylpropyl)-5-oxo-4-phenylimidazolidin-1-yl]butyl}-N-alpha-(methoxycarbonyl)-L-phenylalaninamide], the IC50 was 6 nM.

Take `COC(=O)N[C@@H](Cc1ccccc1)C(=O)NCCC[C@H](C1CC1)N1C(=N)N[C@](CC(C)C)(c2ccccc2)C1=O` [Example 51, N-{(4R)-4-cyclopropyl-4-[(4R)-2-imino-4-(2-methylpropyl)-5-oxo-4-phenylimidazolidin-1-yl]butyl}-N-alpha-(methoxycarbonyl)-L-phenylalaninamide]: the IC50 was determined as 7 nM.

For `COC(=O)N[C@@H](Cc1ccccc1)C(=O)NCCC[C@@H](C1CC1)N1C(=N)N[C@](CC(C)C)(c2ccccc2)C1=O` [Example 52, N-{(4S)-4-cyclopropyl-4-[(4R)-2-imino-4-(2-methylpropyl)-5-oxo-4-phenylimidazolidin-1-yl]butyl}-N-alpha-(methoxycarbonyl)-L-phenylalaninamide], the half-inhibitory concentration (IC50) was found to be 605 nM.

Consider `COC(=O)N[C@@H](Cc1ccccc1)C(=O)NCCC[C@@H](CC1CC1)N1C(=N)N[C@](CC(C)C)(c2ccccc2)C1=O` [Example 53, N-{(4S)-5-cyclopropyl-4-[(4R)-2-imino-4-(2-methylpropyl)-5-oxo-4-phenylimidazolidin-1-yl]pentyl}-N-alpha-(methoxycarbonyl)-L-phenylalaninamide], for which the IC50 turned out to be 249 nM.

`COC(=O)N[C@@H](Cc1ccccc1)C(=O)NCCC[C@@H](C)N1C(=N)N[C@](CC(C)C)(c2ccccc2)C1=O` [Example 54, N-{(4R)-4-[(4R)-2-imino-4-(2-methylpropyl)-5-oxo-4-phenylimidazolidin-1-yl]pentyl}-N-alpha-(methoxycarbonyl)-L-phenylalaninamide]: the IC50 was 190 nM.

For `CC[C@H](CCCNC(=O)[C@H](Cc1ccccc1)NC(=O)OC)N1C(=N)N[C@](CC(C)C)(c2ccccc2)C1=O` [Example 55, N-{(4R)-4-[(4R)-2-imino-4-(2-methylpropyl)-5-oxo-4-phenylimidazolidin-1-yl]hexyl}-N-alpha-(methoxycarbonyl)-L-phenylalaninamide], the IC50 turned out to be 532 nM.

Take `COC(=O)N[C@@H](Cc1ccccc1)C(=O)NCCC[C@@H](CCC1CC1)N1C(=N)N[C@](CC(C)C)(c2ccccc2)C1=O` [Example 56, N-{(4R)-6-cyclopropyl-4-[(4R)-2-imino-4-(2-methylpropyl)-5-oxo-4-phenylimidazolidin-1-yl]hexyl}-N-alpha-(methoxycarbonyl)-L-phenylalaninamide]: the IC50 came out at 100 nM.
